Experimental data as given in patent US9914760B2, “Methods of identifying, isolating and using odorant and aroma receptors” (Firmenich SA, priority 2013, dated 2018).

Target: Olfr743 (Mus musculus, UniProt L7N1Y2)
Experiment: cell-based cAMP assay (HTRF), HEK293T co-transfected with Gαolf
Details: 300 μM 2-acetonaphthone
Text: The activity of candidate mouse receptors Olfr740 (SEQ ID NO: 1 and SEQ ID NO: 2), Olfr743 (SEQ ID NO: 5 and SEQ ID NO: 6), and Olfr746 (SEQ ID NO: 37 and SEQ ID NO: 38) to both indole and skatole malodors were confirmed in cell-based cAMP assays. In FIGS. 5A and 5B, FLAG Rho-tagged (SEQ ID 18) Olfr743 (SEQ ID NO: 6) and Olfr740 (SEQ ID NO: 2) cDNA sequences were co-transfected with Gαolf (SEQ ID NO: 21) and exposed to increasing concentrations of indole (left) or skatole (right). FIGS. 5C and 5D are repeat experiments showing similar activity of Olfr740 (SEQ ID NO: 2) with Olfr743 (SEQ ID NO: 6) with indole and skatole. In FIG. 5E, the FLAG Rho-tagged (SEQ ID 18) Olfr746 (SEQ ID NO: 38) cDNA sequence was co-transfected with Gαolf (SEQ ID NO: 21) and exposed to increasing concentrations of indole or skatole. Odorant-induced activity was detected by measuring cAMP levels in the cytosol using the HTRF approach (CisBio kit). […] Co-transfection of HEK cells with Gαolf (SEQ ID NO: 21) alone (no receptor) were used as controls for non-specific activity (control). Activity is defined as the baseline corrected HTRF ratios normalized to the highest signal in the experiment. […] All three receptors show specific dose dependent activity to the malodor compounds and, as such, validate the process for identifying receptors for these compounds. Mouse receptors Olfr740 (SEQ ID NO: 1 and SEQ ID NO: 2) and Olfr743 (SEQ ID NO: 5 and SEQ ID NO: 6) were identified from isolated olfactory neurons that responded to both indole and skatole. Mouse receptor Olfr746 (SEQ ID NO: 37 and SEQ ID NO: 38) was identified in silico by database mining using Olfr740 (SEQ ID NO: 2) and Olfr743 (SEQ ID NO: 6) as query sequences. The receptors are modified at their N-terminus with the FLAG tag and the first 20 amino acids of the bovine rhodopsin receptor (SEQ ID 18), transiently expressed in HEK 293T cells, and stimulated separately with indole and skatole to confirm their identity as bona fide indole/skatole receptors. Co-expression of the human G alpha subunit Gαolf (SEQ ID NO: 21) activates the Gs transduction pathway that leads to an internal cAMP increase upon binding to the appropriate ligand.
Once identified using the procedure outlined herein, the resulting malodor receptor cell lines can be used to screen chemical libraries for compounds that modulate their activity and possibly human perception. This experiment was performed under the same conditions as in Example 4. Cells transfected with Rho-tagged (SEQ ID NO: 18) Olfr743 (SEQ ID NO: 6) were exposed to increasing concentrations of indole in the presence or absence of 300 μM 2-actetonaphthone. […] In the presence of the antagonist compound, a rightward shift of in the dose-response curve is observed resulting in a 4 fold increase in the EC50 to indole. Activity is defined as the baseline corrected HTRF ratios normalized to the highest signal in the experiment.

Chain of Olfr743 (P38405 2-381): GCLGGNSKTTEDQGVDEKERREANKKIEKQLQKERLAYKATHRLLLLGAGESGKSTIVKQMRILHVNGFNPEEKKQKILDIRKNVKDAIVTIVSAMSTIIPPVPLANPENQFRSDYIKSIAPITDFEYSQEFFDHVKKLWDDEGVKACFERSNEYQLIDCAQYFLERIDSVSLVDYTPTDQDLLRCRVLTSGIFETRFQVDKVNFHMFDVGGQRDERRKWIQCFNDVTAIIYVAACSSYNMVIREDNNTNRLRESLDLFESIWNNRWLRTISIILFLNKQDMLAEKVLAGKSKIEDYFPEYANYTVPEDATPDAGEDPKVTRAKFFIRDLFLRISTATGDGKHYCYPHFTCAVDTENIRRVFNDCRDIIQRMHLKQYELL
Chain of Olfr743 (L7N1Y2 entry or part of it): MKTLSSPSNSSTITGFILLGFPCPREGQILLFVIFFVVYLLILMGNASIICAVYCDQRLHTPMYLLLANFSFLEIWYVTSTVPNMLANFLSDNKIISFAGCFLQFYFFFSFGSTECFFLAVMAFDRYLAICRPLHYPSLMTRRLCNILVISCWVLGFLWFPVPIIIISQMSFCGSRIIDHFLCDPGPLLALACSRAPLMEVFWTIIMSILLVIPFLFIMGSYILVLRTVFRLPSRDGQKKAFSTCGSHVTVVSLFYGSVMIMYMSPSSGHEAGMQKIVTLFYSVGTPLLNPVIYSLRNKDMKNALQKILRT

Compound: CC(=O)c1ccc2ccccc2c1 [2-acetonaphthone]
- inhibition of Olfr743 activity to indole: inhibits the activity
- increase in the EC50 to indole (rightward shift of dose-response curve): 4 fold
